This note sets out measurements from patent US10561666B2, “Amido compounds as RORγt modulators and uses thereof” (New York University, priority 2010, dated 2020).

The assay deals with RORγt (Mus musculus, UniProt P51450, T352K). The assay can be described thus: RORγt S2 cell Gal4-luciferase reporter assay. The following applies: for Emax: read-out: Efficacy (%). A general note: In a reporter assay the amount or activity of a reporter protein is the signal.
Setting [1] is: IC50(μM), Drosophila S2 cells, Gal4-RORγt luciferase reporter, 20 hr.
Where [2] appears, read: S2 cell RORg IC50 μM, S2 cell reporter assay, listed for comparison.

The term IC50 denotes the concentration that inhibits the measured activity by half. Read a low IC50 as inhibition by little substance.

Chain of RORγt (P51450 with tags, fused parts or gaps T352K): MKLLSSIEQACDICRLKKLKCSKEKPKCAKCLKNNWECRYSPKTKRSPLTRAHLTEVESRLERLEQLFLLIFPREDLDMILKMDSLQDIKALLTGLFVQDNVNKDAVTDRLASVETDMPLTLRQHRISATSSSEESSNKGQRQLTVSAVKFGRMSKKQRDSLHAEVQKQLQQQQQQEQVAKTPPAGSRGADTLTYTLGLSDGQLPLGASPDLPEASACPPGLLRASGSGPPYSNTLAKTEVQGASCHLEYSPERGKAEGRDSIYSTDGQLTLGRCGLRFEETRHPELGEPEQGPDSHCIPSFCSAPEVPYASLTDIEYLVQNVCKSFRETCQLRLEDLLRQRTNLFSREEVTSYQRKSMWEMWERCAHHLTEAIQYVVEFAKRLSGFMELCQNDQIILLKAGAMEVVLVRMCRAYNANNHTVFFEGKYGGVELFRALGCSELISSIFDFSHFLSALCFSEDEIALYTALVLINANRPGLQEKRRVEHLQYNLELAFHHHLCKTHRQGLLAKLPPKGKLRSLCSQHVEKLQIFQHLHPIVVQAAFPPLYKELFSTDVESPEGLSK
Source text: Methods: The Drosophila S2 cell line was originally purchased from Invitrogen and was maintained in Schneider's medium supplemented with 10% heat-inactivated bovine fetal calf serum and antibiotics (Invitrogen). […] The resulting chimeric gene was subcloned into the copper inducible pMT/V5-His A vector (available from Invitrogen).
In order to generate stable cell lines, cells were co-transfected with pMT-G4DBD-RORγt, pMT-G4DBD-RORα, pMT-G4DBD-DHR3, or pMT-G4DBDVP16 and pHygro plasmids (Invitrogen) and screened for resistant colonies in the presence of hygromycin (0.3 mg/mL).
Methods: 600 G4DBD-RORγ/γt-luc reporter (#25) or G4DBD-VP16-luc reporter cells were distributed into each well of 1,536-well white bottom plates in 4 μl S2 cell culture volume containing hygromicin (300 μg/ml) and puromycin (2 μg/ml). […] After one-hour incubation, 1 μl of culture medium solution containing copper sulfate (to final 0.7 mM) and 10 μM RORγ/γt antagonists were added to each well. After 20-hour incubation at ambient temperature, 1.5 μl firefly luciferase detection mix was added and the luciferase activities were measured in 10 min. ViewLux luminometers were used for measuring luciferase signal.
Since their cognate DNA binding sites were not well characterized, the DNA binding domains (DBD) of RORγ/γt, RORα (mouse homolog for POPγ), and DHR3 (Drosophila orthologue for ROR family proteins) were replaced with the heterologous yeast GAL4 DBD. The transcriptionally active domain of general transcriptional activator VP16 was also fused with GAL4 DBD. The GAL4 fusion constructs were placed under the control of a copper inducible promoter, and stable S2 cell lines with genomic integration of these four reporter constructs were generated. The copper inducible promoter ensures tight regulation of GAL4-fusion protein expression and it allows small molecules to get into the cells prior to protein induction, thus increasing their effects on GAL4 reporters. The stable reporter cell lines also encode the firefly luciferase reporter, whose expression is regulated by five copies of the GAL4 binding site enhancer (UAS), along with the pol III-driven Renilla luciferase reporter.
A cell-based reporter assay was used to detect RORγt-mediated activity. This assay, called RORγt□ employed Drosophila Schneider cells that were stably transfected with two vectors: a gene expressing a fusion of the Gal4 DNA binding domain and RORγt transactivation domain under the control of the metallothionine promoter and a Photinus luciferase reporter regulated by the Gal4 binding site enhancer, UAS. […] Cells (600/well) were dispensed into white solid 1536-well plates (Greiner) using a solenoid-based dispenser. Following transfer of 23 nL compound or DMSO vehicle by a pin tool, the plates were incubated 1 hr at ambient temperature, and 1 uL/well copper sulfate (700 uM final concentration) was added. The plates were centrifuged 15 s at 1000 RPM and incubated 20 hr at ambient temperature. After addition of 1.5 uL Photinus luciferase detection reagent, the plates were incubated 10 min at ambient temperature and then read by a ViewLux (Perkin Elmer) to detect luminescence. […] Efficacy is expressed as % of the maximal response of control inhibitor (Digoxin), set at 100%.

Take `COc1cc(O)c(C(CC(=O)N2CC(C)CC(C)C2)c2ccc(Cl)c(Cl)c2)c(OC)c1` (stereo not drawn) [Compound 88, 3-(3,4-Dichlorophenyl)-1-(3,5-dimethylpiperidin-1-yl)-3-(2-hydroxy-4,6-dimethoxyphenyl)propan-1-one]: the Emax was 97.2%. The compound further had an IC50 under setting [1] of 1 to 10 µM. On to `COc1cc(O)c(C(CC(=O)N2CC(C)CC(C)C2)c2ccc(C(C)(C)C)cc2)c(OC)c1` (stereo not drawn) [Compound 89, 3-(4-tert-Butylphenyl)-1-(3,5-dimethylpiperidin-1-yl)-3-(2-hydroxy-4,6-dimethoxyphenyl)propan-1-one], for which the Emax was 95.4%. Under setting [1], this compound registered an IC50 of 1 to 10 µM.

For the compound `COc1cc(O)c(C(CC(=O)N2CC(C)CC(C)C2)c2ccc(CN3CCOCC3)cc2)c(OC)c1` (stereo not drawn) [Compound 90], the Emax came out at 99.1%. The compound further returned a concentration for half-maximal inhibition (IC50) under setting [1] of 1 to 10 µM. In the case of `COc1cc(O)c(C(CC(=O)N2CC(C)CC(C)C2)c2cccc(OCc3ccccc3)c2)c(OC)c1` (stereo not drawn) [Compound 91], the Emax worked out at 92.6%. Further, the half-inhibitory concentration (IC50) under setting [1] fell in the range of 1 to 10 µM. Consider `COc1cc(O)c(C(CC(=O)N2CC(C)CC(C)C2)c2ccc(OCc3ccccc3)cc2)c(OC)c1` (stereo not drawn) [Compound 92], for which the Emax worked out at 94.6%. Besides, under setting [1], the IC50 was in the range of 1 to 10 µM. The matching figures for `COc1cc(O)c(C(CC(=O)N2CC(C)CC(C)C2)c2cccc(OC(F)(F)F)c2)c(OC)c1` (stereo not drawn) [Compound 93, 1-(3,5-Dimethylpiperidin-1-yl)-3-(2-hydroxy-4,6-dimethoxyphenyl)-3-(3-(trifluoromethoxy)phenyl)propan-1-one]: 93.3% and 1 to 10 µM.

As for `COc1cc(O)c(C(CC(=O)N2CC(C)CC(C)C2)c2cccc(OC(C)C)c2)c(OC)c1` (stereo not drawn) [Compound 94, 1-(3,5-Dimethylpiperidin-1-yl)-3-(2-hydroxy-4,6-dimethoxyphenyl)-3-(3-isopropoxyphenyl)propan-1-one], the Emax is 90.5%. Besides, the half-inhibitory concentration (IC50) under setting [1] fell in the range of 1 to 10 µM. The matching figures for `COc1cc(O)c(C(CC(=O)N2CC(C)CC(C)C2)c2ccc(C(=O)NC3CC3)cc2)c(OC)c1` (stereo not drawn) [Compound 95]: 93.1% and 1 to 10 µM.

With `COc1cc(O)c(C(CC(=O)N2CC(C)CC(C)C2)c2ccc(OC(F)(F)F)cc2)c(OC)c1` (stereo not drawn) [Compound 96, 1-(3,5-Dimethylpiperidin-1-yl)-3-(2-hydroxy-4,6-dimethoxyphenyl)-3-(4-(trifluoromethoxy)phenyl)propan-1-one], the Emax was found to be 94.8%. Under setting [1], the concentration for half-maximal inhibition (IC50) is 1 to 10 µM. Taken in the same sequence, the figures for `COc1cc(O)c(C(CC(=O)N2CC(C)CC(C)C2)c2cc(Cl)cc(Cl)c2)c(OC)c1` (stereo not drawn) [Compound 97] were 61.5% and 11 to 50 µM. Taken in the same sequence, the figures for `COc1cc(O)c(C(CC(=O)N2CC(C)CC(C)C2)c2ccc(C(=O)O)cc2)c(OC)c1` (stereo not drawn) [Compound 99] were 92.6% and 1 to 10 µM. Under setting [1], `COc1cc(O)c(C(CC(=O)N2CC(C)CC(C)C2)c2ccc(C(C)=O)cc2)c(OC)c1` (stereo not drawn) [Compound 100, 3-(4-Acetylphenyl)-1-(3,5-dimethylpiperidin-1-yl)-3-(2-hydroxy-4,6-dimethoxyphenyl)propan-1-one] came in with a concentration for half-maximal inhibition (IC50) of less than 1 µM. Consider `COc1cc(O)c(C(CC(=O)N2CC(C)CC(C)C2)c2cccc(C(=O)O)c2)c(OC)c1` (stereo not drawn) [Compound 101, 3-(3-(3,5-Dimethylpiperidin-1-yl)-1-(2-hydroxy-4,6-dimethoxyphenyl)-3-oxopropyl)benzoic acid], for which the half-inhibitory concentration (IC50) under setting [1] is 1 to 10 µM. For `COc1cc(O)c(C(CC(=O)N2CC(C)CC(C)C2)c2cccc(F)c2)c(OC)c1` (stereo not drawn) [Compound 102], the Emax came out at 99.9%. This compound came in with a half-maximal inhibitory concentration (IC50) under setting [1] of 1 to 10 µM. The matching figures for `COc1cc(O)c(C(CC(=O)N2CC(C)CC(C)C2)c2ccccc2Cl)c(OC)c1` (stereo not drawn) [Compound 103]: 95.8% and 1 to 10 µM. Take `COc1cc(O)c(C(CC(=O)N2CC(C)CC(C)C2)c2ccc3c(c2)OC(F)(F)O3)c(OC)c1` (stereo not drawn) [Compound 104]: the Emax stood at 97.3%. The IC50 under setting [1] was 1 to 10 µM. Regarding `COc1cc(O)c(C(CC(=O)N2CC(C)CC(C)C2)c2ccc(SC)cc2)c(OC)c1` (stereo not drawn) [Compound 105, 1-(3,5-Dimethylpiperidin-1-yl)-3-(2-hydroxy-4,6-dimethoxyphenyl)-3-(4-(methylthio)phenyl)propan-1-one], the Emax is 94.7%. The IC50 under setting [1] is less than 1 µM.

For the compound `COc1cc(O)c(C(CC(=O)N2CC(C)CC(C)C2)c2cc(F)c(F)c(F)c2)c(OC)c1` (stereo not drawn) [Compound 109, 1-(3,5-Dimethylpiperidin-1-yl)-3-(2-hydroxy-4,6-dimethoxyphenyl)-3-(3,4,5-trifluorophenyl)propan-1-one], the Emax is 97.3%. This compound registered a half-maximal inhibitory concentration (IC50) under setting [1] of 1 to 10 µM. Compound `COc1cc(O)c(C(CC(=O)N2CC(C)CC(C)C2)c2ccc(OCc3ccccc3)cc2)c(OC)c1` (stereo not drawn) [Compound 110] displayed a 50% inhibitory concentration (IC50) (Drosophila S2 cells, Gal4-RORγt luciferase reporter, 20 hr) of 1 to 10 µM. In the case of `COc1cc(O)c(C(CC(=O)N2CC(C)CC(C)C2)c2ccc(C(N)=O)cc2)c(OC)c1` (stereo not drawn) [Compound 111], under setting [1], the 50% inhibitory concentration (IC50) is 1 to 10 µM. For the compound `CCc1ccc(O)c(C(CC(=O)N2CCCC(C)C2)c2ccc3c(c2)OCO3)c1` (stereo not drawn) [Compound 112], the Emax is 106%. Besides, under setting [1], the IC50 was in the range of 11 to 50 µM. Taken in the same sequence, the figures for `Cc1ccc(C)c(C(CC(=O)N2CCCC(C)C2)c2ccc3c(c2)OCO3)c1O` (stereo not drawn) [Compound 113] were 81.5% and 11 to 50 µM. Taken in the same sequence, the figures for `CC1CCCN(C(=O)CC(c2ccc3c(c2)OCO3)c2cc(C(C)C)ccc2O)C1` (stereo not drawn) [Compound 114] were 87.3% and 11 to 50 µM. Taken in the same sequence, the figures for `Cc1cc(C)c(O)c(C(CC(=O)N2CCCC(C)C2)c2ccc3c(c2)OCO3)c1` (stereo not drawn) [Compound 116] were 48.2% and 11 to 50 µM. `CC1CCCN(C(=O)CC(c2ccc3c(c2)OCO3)c2c(O)ccc3ccccc23)C1` (stereo not drawn) [Compound 118]: the Emax came to 94.9%. Also, the concentration for half-maximal inhibition (IC50) under setting [1] fell in the range of 1 to 10 µM. The compound further displayed a half-maximal inhibitory concentration (IC50) under setting [2] of 1 to 10 µM.

In the case of `CCOc1ccc(O)c(C(CC(=O)N2CCCC(C)C2)c2ccc3c(c2)OCO3)c1` (stereo not drawn) [Compound 119], the Emax amounted to 94.3%. Under setting [1], this compound came in with an IC50 of 11 to 50 µM. Further, the IC50 under setting [2] was 11 to 20 µM. `CC1CCCN(C(=O)CC(c2ccc3c(c2)OCO3)c2ccc(O)cc2O)C1` (stereo not drawn) [Compound 122] yielded a half-maximal inhibitory concentration (IC50) under setting [1] of more than 50 µM. With `C#CCOc1cc(OC)cc(OC)c1C(CC(=O)N1CCCC(C)C1)c1ccc2c(c1)OCO2` (stereo not drawn) [Compound 123], the Emax was found to be 98%. This compound also registered a half-maximal inhibitory concentration (IC50) under setting [1] of 1 to 10 µM. In the case of `COc1cc(OC)c(C(CC(=O)N2CCCC(C)C2)c2ccc3c(c2)OCO3)c(OCc2ccccc2)c1` (stereo not drawn) [Compound 124], the Emax stood at 94.1%. The concentration for half-maximal inhibition (IC50) under setting [1] lay in the range of 1 to 10 µM. Further, under setting [2], the concentration for half-maximal inhibition (IC50) was in the range of 1 to 10 µM. As to `Cc1ccc(C(CC(=O)N2CCCC(C)C2)c2ccc3c(c2)OCO3)c(O)c1` (stereo not drawn) [Compound 125], the Emax turned out to be 51.6%. The same compound came in with an IC50 under setting [1] of 11 to 50 µM. As for `Cc1cccc(O)c1C(CC(=O)N1CCCC(C)C1)c1ccc2c(c1)OCO2` (stereo not drawn) [Compound 126], the Emax worked out at 43.5%. Moreover, the IC50 under setting [1] was 11 to 50 µM. The matching figures for `CC1CCCN(C(=O)CC(c2ccc3c(c2)OCO3)c2c(O)cccc2Cl)C1` (stereo not drawn) [Compound 127]: 27.1% and 11 to 50 µM. Taken in the same sequence, the figures for `COc1cc2ccccc2c(O)c1C(CC(=O)N1CCCC(C)C1)c1ccc2c(c1)OCO2` (stereo not drawn) [Compound 128] were 80% and 11 to 50 µM. With `COc1cc(O)c(C(CC(=O)N2CCCC(C)C2)c2ccc3c(c2)OCO3)c2ccccc12` (stereo not drawn) [Compound 129], the Emax came out at 76.9%. This compound had an IC50 under setting [1] of 11 to 50 µM. As to `COc1ccc(C)c(O)c1C(CC(=O)N1CCCC(C)C1)c1ccc2c(c1)OCO2` (stereo not drawn) [Compound 130], the Emax came to 77.5%. Also, the concentration for half-maximal inhibition (IC50) under setting [1] was in the range of 11 to 50 µM. In the case of `CC1CCCN(C(=O)CC(c2ccc3c(c2)OCO3)c2ccc(I)cc2O)C1` (stereo not drawn) [Compound 131], the Emax stood at 33.2%. For the same compound, under setting [1], the IC50 was 11 to 50 µM.

For `CC1CCCN(C(=O)CC(c2ccc3c(c2)OCO3)c2ccc(F)cc2O)C1` (stereo not drawn) [Compound 132], the Emax came out at 30.4%. The IC50 under setting [1] fell in the range of 1 to 10 µM. Turning to `CC(=O)Nc1ccc(C(CC(=O)N2CC(C)CC(C)C2)c2ccc3c(c2)OCO3)c(O)c1` (stereo not drawn) [Compound 133], the Emax was found to be 103%. The 50% inhibitory concentration (IC50) under setting [1] was 1 to 10 µM. Taken in the same sequence, the figures for `COc1c(C(CC(=O)N2CC(C)CC(C)C2)c2ccc3c(c2)OCO3)c(O)cc2occc12` (stereo not drawn) [Compound 139] were 94.5% and less than 1 µM. Take `COc1cccc(O)c1C(CC(=O)N1CC(C)CC(C)C1)c1ccc2c(c1)OCO2` (stereo not drawn) [Compound 140, 3-(Benzo[d][1,3]dioxol-5-yl)-1-(3,5-dimethylpiperidin-1-yl)-3-(2-hydroxy-6-methoxyphenyl)propan-1-one]: the Emax was 96.5%. The IC50 under setting [1] is less than 1 µM. As to `CC1CC(C)CN(C(=O)CC(c2ccc(-n3cncn3)cc2)c2ccc3c(c2)OCO3)C1` (stereo not drawn) [Compound 141, 3-(4-(1H-1,2,4-Triazol-1-yl)phenyl)-3-(benzo[d][1,3]dioxol-5-yl)-1-(3,5-dimethylpiperidin-1-yl)propan-1-one], the Emax was 106%. Moreover, the concentration for half-maximal inhibition (IC50) under setting [1] lay within 11 to 50 µM.

Take `CC1CC(C)CN(C(=O)CC(c2ccc3c(c2)OCO3)c2cccc(F)c2O)C1` (stereo not drawn) [Compound 143]: the Emax worked out at 86.4%. The IC50 under setting [1] fell in the range of 11 to 50 µM. Taken in the same sequence, the figures for `CC1CC(C)CN(C(=O)CC(c2ccc3c(c2)OCO3)c2ccc(F)cc2O)C1` (stereo not drawn) [Compound 144] were 97.3% and 11 to 50 µM. The matching figures for `CC1CC(C)CN(C(=O)CC(c2ccc3c(c2)OCO3)c2cc(F)ccc2O)C1` (stereo not drawn) [Compound 145]: 79.7% and 1 to 10 µM. Taken in the same sequence, the figures for `CC1CC(C)CN(C(=O)CC(c2ccc3c(c2)OCO3)c2c(O)ccc3cccnc23)C1` (stereo not drawn) [Compound 146] were 94.1% and 1 to 10 µM. As to `O=C(CC(c1ccc2c(c1)OCO2)c1c(O)ccc2ccccc12)N1CCCCC1` (stereo not drawn) [Compound 147], the Emax was found to be 88.1%. Further, under setting [1], the half-inhibitory concentration (IC50) lay within 11 to 50 µM.
